Data on 1 compound can be found in patent US8592486B2, “Compounds for inflammation and immune-related uses” (Synta Pharmaceuticals Corp., priority 2005, dated 2013).

The test system of experiment [1] is ICRAC in human Jurkat T cells. The experiment is described as follows: Whole-cell patch clamp, inhibition of ICRAC current in Jurkat T cells. The experiment is classed as cell-based. As for the experimental part: Patch clamp experiments were performed in the tight-seal whole-cell configuration at 21-25° C. High resolution current recordings were acquired by a computer-based patch clamp amplifier system (EPC-9, HEKA, Lambrecht, Germany). Patch pipettes had resistances between 2-4 MΩ after filling with the standard intracellular solution. Immediately following establishment of the whole-cell configuration, voltage ramps of 50-200 ms duration spanning the voltage range of −100 to +100 mV were delivered at a rate of 0.5 Hz over a period of 300-400 seconds. […] Capacitive currents and series resistance were determined and corrected before each voltage ramp using the automatic capacitance compensation of the EPC-9. The low resolution temporal development of membrane currents was assessed by extracting the current amplitude at −80 mV or +80 mV from individual ramp current records.
In general, a whole cell patch clamp method was used to examine the effects of a compound of the invention on a channel that mediates Icrac. […] Then a compound to be tested was perfused (or puffed) to cells in the external solution and the effect of the compound on Icrac was measured. […]
Patch-clamp experiments were performed in the tight-seal whole-cell configuration at 21-25° C. […] Capacitive currents and series resistance were determined and corrected before each voltage ramp using the automatic capacitance compensation of the EPC-9. […]

Experiment [2] deals with chemotactic response of porcine T cells to MIP-1α. The experiment is described as follows: T cell chemotaxis (cell migration) assay, porcine T cells. The experiment is classed as cell-based, pig. The note with it: Sus scrofa, 10 ng/ml MIP-1α, 2 hr migration, averages of triplicates, read-out: IC50, inhibition of chemotactic response of porcine T cells. As for the experimental part:
(§1) Twenty ml aliquots of heparinized whole blood (2 pig, 1 human) were subjected to density gradient centrifugation on Ficoll Hypaque. The buffy coat layers representing peripheral blood mononuclear cells (PBMCs) containing lymphocytes and monocytes were washed once, resuspended in 12 ml of incomplete RPMI 1640 and then placed in gelatin-coated T75 culture flasks for 1 hr at 37° C. The non-adherent cells, representing peripheral blood lymphocytes (PBLs) depleted of monocytes, were resuspended in complete RPMI media and placed in loosely packed activated nylon wool columns that had been equilibrated with warm media. After 1 hr at 37° C., the non-adherent T cell populations were eluted by washing of the columns with additional media. The T cell preparations were centrifuged, resuspended in 5 ml of incomplete RPMI, and counted using a hemocytometer.
(§2) Aliquots of each T cell preparation were labeled with Calcien AM (TefLabs) and suspended at a concentration of 2.4×10^6/ml in HEPES-buffered Hank's Balanced Salt Solution containing 1.83 mM CaCl2 and 0.8 mM MgCl2, pH 7.4 (HHBSS). […] The chemotaxis units were then placed in a CytoFlour 4000 (PerSeptive BioSystems) and the fluorescence of each well measured (excitation and emission wavelengths of 450 and 530 nm, respectively). […]

Experiment [3] deals with chemotactic response of human T cells to MIP-1α. In words: T cell chemotaxis (cell migration) assay, human T cells. The experiment is classed as cell-based. The conditions noted are these: 100 ng/ml MIP-1α, FIG. 1. As for the experimental part: as §1, §2
Experiment [4] concerns degranulation in RBL cells. The experiment is described as follows: Inhibition of degranulation in RBL cells. The experiment is classed as cell-based. The conditions noted are these: Rattus norvegicus, anti-DNP IgE, read-out: IC50 (concentration which inhibits 50% of degranulation in RBL cells). As for the experimental part: The day before the assay was performed, RBL cells, that had been grown to confluence in a 96 well plate, were incubated at 37° C. for at least 2 hours. The medium was replaced in each well with 100 μL of fresh medium containing […] of anti-DNP IgE.
On the following day, the cells were washed once with PRS (2.6 mM glucose and 0.1% BSA) and 160 μL of PRS was added to each well. A test compound was added to a well in a 20 μL solution at 10× of the desired concentration and incubated for 20 to 40 minutes at 37° C. 20 μL of 10× mouse anti-IgE ([…]) was added. Maximum degranulation occurred between 15 to 40 minutes after addition of anti-IgE.

The subject of another experiment is IL-2 production. The experiment is described as follows: Inhibition of IL-2 production in PHA-activated Jurkat cells (ELISA). The note with it: Homo sapiens, Jurkat, 20 h, Jurkat cells, PHA 2.5 μg/mL, 20 hours, IL-2 ELISA; read-out: IC50 (inhibition of IL-2 production). The experiment is classed as cell-based, human. In general terms: An ELISA detects its analyte on a solid surface through an enzyme-linked reagent.

Consider `COC(=O)c1ccc(C)c(-c2ccc(NC(=O)c3c(F)cccc3F)cc2)c1` [Compound 1, 4′-(2,6-Difluoro-benzoylamino)-6-methyl-biphenyl-3-carboxylic acid methyl ester], for which the “Inhibition of ICRAC in human Jurkat T cells” value in experiment [1] is on record as “strong inhibitor”. In addition, the IC50 was ~5 nM in experiment [2], 2520 nM in experiment [4] and 2 to 4 nM in the experiment on IL-2 production. Moreover, the “Inhibition of chemotactic response of human T cells” value in experiment [3] is given as “inhibitory”.
